This passage reports pest or weed control results from US9808003B2, “Herbicidally active 2-(substituted-phenyl)-cyclopentane-1,3-dione compounds and derivatives thereof” (Syngenta Limited, priority 2013, dated 2017).

Molecules are shown by their SMILES.

Assay in all cases: Test 1A glasshouse assay, post-emergence herbicidal activity
Format in all cases: in vivo

Assay [1] deals with Alopecurus myosuroides (ALOMY). Conditions: Alopecurus myosuroides, 312 h, application rate 250 g/ha, 13 days after application, visual (100%=total damage; 0%=no damage), read-out: Post-emergence Herbicidal Activity (% Phytotoxicity) ALOMY. Here is the method:
(§1) Seeds of a variety of test species were sown in standard soil in pots. After cultivation for one day (pre-emergence) or after 8 days cultivation (post-emergence) under controlled conditions in a glasshouse (at 24/16° C., day/night; 14 hours light; 65% humidity), the plants were sprayed with an aqueous spray solution derived from the formulation of the technical active ingredient in acetone/water (50:50) solution containing 0.5% Tween 20 (polyoxyethelyene sorbitan monolaurate, CAS RN 9005-64-5). The test plants were then grown under controlled conditions in a glasshouse (at 24/16° C., day/night; 14 hours light; 65% humidity) and watered twice daily. 13 days after application of the test herbicide, for pre- and post-emergence, the test was evaluated visually for percentage phytotoxicity to the plant (where 100%=total damage to plant; 0%=no damage to plant).
(§2) Lolium perenne (LOLPE), Alopecurus myosuroides (ALOMY), Echinochloa crus-galli (ECHCG), and Avena fatua (AVEFA); these are all grassy monocotyledonous weeds.

The subject of a further assay is Avena fatua (AVEFA). Conditions: Avena fatua, 312 h, application rate 250 g/ha, 13 days after application, visual (100%=total damage; 0%=no damage), read-out: Post-emergence Herbicidal Activity (% Phytotoxicity) AVEFA. The procedure:
as §1, §2

For assay [2], the system named is Echinochloa crus-galli (ECHCG). Conditions: Echinochloa crus-galli, 312 h, application rate 250 g/ha, 13 days after application, visual (100%=total damage; 0%=no damage), read-out: Post-emergence Herbicidal Activity (% Phytotoxicity) ECHCG. The procedure: as §1, §2
A further assay concerns Lolium perenne (LOLPE). The settings on record: Lolium perenne, 312 h, application rate 250 g/ha, 13 days after application, visual (100%=total damage; 0%=no damage), read-out: Post-emergence Herbicidal Activity (% Phytotoxicity) LOLPE. The procedure:
as §1, §2

Turning to `Cc1cc(C)c(C2C(=O)CC(CCNC(=O)c3nccn3C)C2=O)c(C)c1` (stereo not shown) [Compound A59], the pest or weed control at 250 g/ha was 60% in assay [1], 60% in the assay on Avena fatua (AVEFA), 30% in assay [2] and 80% in the assay on Lolium perenne (LOLPE).
Turning to `Cc1cc(C)c(C2C(=O)CC(CCNC(=O)C3CCCC3)C2=O)c(C)c1` (stereo not shown) [Compound A9], the pest or weed control at 250 g/ha was determined as 60% in assay [1], 50% in the assay on Avena fatua (AVEFA), 70% in assay [2] and 80% with Lolium perenne (LOLPE).
On the same counts, the results for `Cc1cc(C)c(C2C(=O)CC(CCNC(=O)c3ccc(F)c(Cl)c3)C2=O)c(C)c1` (stereo not shown) [Compound A14] are 60%, 70%, 100% and 70%.
Regarding `Cc1cc(Oc2ncc(C(F)(F)F)cc2Cl)cc(C)c1C1C(=O)CC(CCNC(=O)c2ccccn2)C1=O` (stereo not shown) [Compound A126B, N-[2-[3-[4-[[3-chloro-5-(trifluoromethyl)-2-pyridyl]oxy]-2,6-dimethyl-phenyl]-2,4-dioxo-cyclopentyl]ethyl]pyridine-2-carboxamide], the pest or weed control at 250 g/ha in assay [1] worked out at 90%; in the assay with Avena fatua (AVEFA), 90%; in assay [2], 100%; in the assay with Lolium perenne (LOLPE), 90%.
For the molecule `Cc1cc(C)c(C2C(=O)CC(CCNC(=O)c3sc(C)nc3C(F)F)C2=O)c(C)c1` (stereo not shown) [Compound A183], the pest or weed control at 250 g/ha in assay [1] is 60%; in the assay on Avena fatua (AVEFA), 60%; in assay [2], 90%; in the assay on Lolium perenne (LOLPE), 90%.
As to `Cc1cc(C)c(C2C(=O)CC(CCNC(=O)c3ncc(F)cc3Br)C2=O)c(C)c1` (stereo not shown) [Compound A187], the pest or weed control at 250 g/ha in assay [1] worked out at 90%; in the assay on Avena fatua (AVEFA) it was 90%; in assay [2] it was 100%; with Lolium perenne (LOLPE), 100%.
Consider `Cc1cc(C)c(C2C(=O)CC(CCNC(=O)c3nn(C)c(Cl)c3C)C2=O)c(C)c1` (stereo not shown) [Compound A160], for which the pest or weed control at 250 g/ha in assay [1] came to 90%; with Avena fatua (AVEFA) it was 100%; in assay [2] it was 100%; in the assay on Lolium perenne (LOLPE) it was 90%.
For `Cc1cc(C)c(C2C(=O)CC(CCNC(=O)c3ccoc3)C2=O)c(C)c1` (stereo not shown) [Compound A16], the pest or weed control at 250 g/ha in assay [1] amounted to 60%; with Avena fatua (AVEFA), 50%; in assay [2] it was 50%; in the assay on Lolium perenne (LOLPE) it was 60%.
In the case of `Cc1cc(C)c(C2C(=O)CC(CCNC(=O)c3ccc(Cl)nc3Cl)C2=O)c(C)c1` (stereo not shown) [Compound A24], the pest or weed control at 250 g/ha was 80% in assay [1], 80% with Avena fatua (AVEFA), 80% in assay [2] and 90% in the assay on Lolium perenne (LOLPE).
In the case of `Cc1cc(C)c(C2C(=O)CC(CCNC(=O)c3ncccc3Br)C2=O)c(C)c1` (stereo not shown) [Compound A46], the pest or weed control at 250 g/ha amounted to 60% in assay [1], 70% with Avena fatua (AVEFA), 90% in assay [2] and 100% with Lolium perenne (LOLPE).
With `Cc1cc(-c2ccccc2Cl)cc(C)c1C1C(=O)CC(CCNC(=O)c2ccccn2)C1=O` (stereo not shown) [Compound A184], the pest or weed control at 250 g/ha was found to be 10% in assay [1], 20% in the assay with Avena fatua (AVEFA), 90% in assay [2] and 60% in the assay with Lolium perenne (LOLPE).
On the same counts, the results for `Cc1cc(C)c(C2C(=O)CC(CCNC(=O)c3csc(C)n3)C2=O)c(C)c1` (stereo not shown) [Compound A73] are 90%, 90%, 90% and 80%.
The like results for `COc1cc(C)c(C2C(=O)CC(CCNC(=O)c3ccccn3)C2=O)c(C)c1` (stereo not shown) [Compound A122] were, in that order, 100%, 90%, 100% and 100%.
On the same counts, the results for `Cc1ccnc(C(=O)NCCC2CC(=O)C(c3c(C)cc(C)cc3C)C2=O)c1` (stereo not shown) [Compound A119] are 100%, 90%, 100% and 90%.
With `Cc1cc(C)c(C2C(=O)CC(CCNC(=O)c3cccc(-c4ccccc4)n3)C2=O)c(C)c1` (stereo not shown) [Compound A93], the pest or weed control at 250 g/ha in assay [1] came to 70%; in the assay with Avena fatua (AVEFA), 40%; in assay [2] it was 50%; in the assay on Lolium perenne (LOLPE), 70%.
With `Cc1cc(C)c(C2C(=O)CC(CCNC(=O)c3ccc(Cl)cn3)C2=O)c(C)c1` (stereo not shown) [Compound A118], the pest or weed control at 250 g/ha (in assay [1]; with Avena fatua (AVEFA); in assay [2]; with Lolium perenne (LOLPE)) was 100% in each case.
Regarding `Cc1cc(Br)cc(Br)c1C1C(=O)CC(CCNC(=O)c2ccccn2)C1=O` (stereo not shown) [Compound A197], the pest or weed control at 250 g/ha in assay [1] came to 90%; with Avena fatua (AVEFA), 70%; in assay [2], 100%; with Lolium perenne (LOLPE) it was 60%.
The like results for `Cc1cc(C)c(C2C(=O)CC(CCNC(=O)C3CCOC3)C2=O)c(C)c1` (stereo not shown) [Compound A36] were, in that order, 80%, 70%, 80% and 80%.
On to `Cc1cc(C)c(C2C(=O)CC(CCNC(=O)c3cc(Cl)cc(Cl)n3)C2=O)c(C)c1` (stereo not shown) [Compound A146], for which the pest or weed control at 250 g/ha in assay [1] was found to be 60%; in the assay on Avena fatua (AVEFA), 40%; in assay [2], 100%; in the assay on Lolium perenne (LOLPE) it was 70%.
For the molecule `CCC(CC1CC(=O)C(c2c(C)cc(C)cc2C)C1=O)NC(=O)c1ccc(F)cc1` (stereo not shown) [Compound A21], the pest or weed control at 250 g/ha in assay [1] turned out to be 90%; in the assay with Avena fatua (AVEFA), 90%; in assay [2] it was 100%; in the assay on Lolium perenne (LOLPE) it was 100%.
For `Cc1cc(C)c(C2C(=O)CC(CCNC(=O)c3nc(C)ncc3Br)C2=O)c(C)c1` (stereo not shown) [Compound A78], the pest or weed control at 250 g/ha was determined as 80% in assay [1], 80% in the assay with Avena fatua (AVEFA), 80% in assay [2] and 60% in the assay on Lolium perenne (LOLPE).
With `O=C(NCCC1CC(=O)C(c2c(Cl)cc(-c3ccc(F)cc3)cc2Cl)C1=O)c1ccccn1` (stereo not shown) [Compound A106], the pest or weed control at 250 g/ha in assay [1] is 90%; in the assay with Avena fatua (AVEFA), 100%; in assay [2] it was 100%; in the assay on Lolium perenne (LOLPE), 100%.
With `Cc1cc(C)c(C2C(=O)CC(CCNC(=O)c3nn(C)cc3C(F)(F)F)C2=O)c(C)c1` (stereo not shown) [Compound A77], the pest or weed control at 250 g/ha in assay [1] came out at 70%; in the assay with Avena fatua (AVEFA), 90%; in assay [2], 90%; in the assay with Lolium perenne (LOLPE) it was 90%.
With `Cc1ccc(-c2cc(C)c(C3C(=O)CC(CCNC(=O)c4ccccn4)C3=O)c(C)c2)cc1` (stereo not shown) [Compound A204], the pest or weed control at 250 g/ha is 90% in assay [1], 90% in the assay on Avena fatua (AVEFA), 100% in assay [2] and 100% in the assay on Lolium perenne (LOLPE).
For the molecule `Cc1cc(C)c(C2C(=O)CC(CCNC(=O)c3ccc(Cl)nc3)C2=O)c(C)c1` (stereo not shown) [Compound A22], the pest or weed control at 250 g/ha came out at 70% in assay [1], 80% with Avena fatua (AVEFA), 80% in assay [2] and 80% with Lolium perenne (LOLPE).
Consider `Cc1cc(C)c(C2C(=O)CC(CCNC(=O)c3ccc(F)cn3)C2=O)c(C)c1` (stereo not shown) [Compound A97], for which the pest or weed control at 250 g/ha (in assay [1]; in the assay on Avena fatua (AVEFA); in assay [2]; with Lolium perenne (LOLPE)) was 100% throughout.
For the molecule `Cc1cc(-c2cc(F)cc(F)c2)cc(C)c1C1C(=O)CC(CCNC(=O)c2ccccn2)C1=O` (stereo not shown) [Compound A109], the pest or weed control at 250 g/ha (in assay [1]; in the assay on Avena fatua (AVEFA); in assay [2]; in the assay on Lolium perenne (LOLPE)) was 100% each time.
For `Cc1cc(C)c(C2C(=O)CC(CCNC(=O)Cc3ccccn3)C2=O)c(C)c1` (stereo not shown) [Compound A45], the pest or weed control at 250 g/ha turned out to be 50% in assay [1], 80% in the assay on Avena fatua (AVEFA), 60% in assay [2] and 80% in the assay on Lolium perenne (LOLPE).
